Assays:
guinea pig ileum = test: spasmogenic effect on guinea pig ileum in vitro; settings: Cavia porcellus, read-out: Guinea pig Ileum: threshold dose for spasmogenic effect
From the text: (§1) These tests include, among others, a test for effect on isolated smooth muscle from guinea pig ileum and rat uterus, a test for effect on histamine induced bronchospasm in guinea pig, a test for effects on dog blood pressure, a test for induction of diarrhea in mice, and a test for the induction of abortion in early pregnant rats.
^(d) Threshold dose for spasmogenic effect on guinea pig ileum in […]

estrogenized rat uterus = test: spasmogenic effect on estrogenized rat uterus in vitro; settings: read-out: Rat Uterus: threshold dose for spasmogenic effect
From the text: as §1
^(c) Threshold dose for spasmogenic effect on estrogenized rat uterus

[1] = test system: histamine induced bronchospasm in the guinea pig; test: histamine induced bronchospasm in the guinea pig (aerosol); assay type: in vivo; settings: for Histamine Aerosol: per cent protection for histamine induced bronchospasm: 100 μg/ml aerosol dose, guinea pig
Procedure: as §1
^(b) Per cent protection by 100 μg/ml aerosol dose for histamine
induced bronchospasm in the guinea pig.

[2] = test system: anesthetized dog blood pressure; test: depressor effect on anesthetized dog blood pressure; assay type: in vivo; settings: for Dog Blood Pressure: relative dose at which oxaprostaglandin derivative has similar action to PGE2 for depressor effect: anesthetized dog
From the text: as §1
^(a) Relative dose at which oxaprostaglandin derivative has similar
action to PGE2 for depressor effect on anesthetized dog blood

mice = test: induction of diarrhea in mice in vivo
From the text: as §1
(§2) On the basis of the difference seen in the rat uterus and guinea pig ileum tests with 19 -oxaprostaglandin E2, one would expect to have a reduction of the unpleasant gastrointestinal side effects which were encountered when natural PGE2 was employed as an abortion inducer (Lancet, 536, 1971).

early pregnant rat = test: induction of abortion in early pregnant rats; assay type: in vivo
From the text: as §1, §2

[3] = target: norepinephrine stimulated lipolysis; test: inhibition of norepinephrine stimulated lipolysis; settings: read-out: K: inhibition constant for norepinephrine stimulated lipolysis
From the text: ^(e) Inhibition constant for norepinephrine stimulated lipolysis.

[4] = physiological tests taken together (Table I; comparison with natural prostaglandin); settings: in words; compared with natural prostaglandin; rat uterus vs guinea pig ileum
From the text: as §1, §2

SMILES | minimal effective concentration (guinea pig ileum) [µg/mL] | minimal effective concentration (estrogenized rat uterus) [µg/mL] | Histamine Aerosol: per cent protection for histamine induced bronchospasm [1] [%] | Dog Blood Pressure: relative dose at which oxaprostaglandin derivative has similar action to PGE2 for depressor effect [2] | selectivity with regard to blood pressure effects ([2]; in words, from Table I) | effectiveness in inducing diarrhea relative to natural PGE2 (mice) [%] | effectiveness in inducing abortion compared with natural PGE2 (early pregnant rat) | Ki [3] [µM] | tissue selectivity [4] | bronchodilator selectivity compared with natural PGE2 ([1]; in words, from Table I)
CCOCC[C@H](O)/C=C/[C@H]1[C@H](O)CC(=O)[C@@H]1C/C=C\CCCC(=O)O [18-oxa PGE2, 9-oxo-11α,15α-dihydroxy-18-oxa-cis-5-trans-13-prostadienoic acid] | 0.1 to 0.3 | 0.1 to 0.3 | 3 | 2 | particularly selective with regard to its blood pressure effects | – | – | – | – | –
CCOCC[C@H](O)/C=C/[C@@H]1[C@@H](C/C=C\CCCC(=O)O)[C@@H](O)C[C@H]1O [18-oxa PGF2α, 9α,11α,15α-trihydroxy-18-oxa-cis-5-trans-13-prostadienoic acid] | 0.1 to 0.3 | 0.3 to 0.6 | – | – | – | – | – | – | – | –
COCCC[C@H](O)/C=C/[C@H]1[C@H](O)CC(=O)[C@@H]1C/C=C\CCCC(=O)O [19-oxa PGE2, 9-oxo-11α,15α-dihydroxy-19-oxa-cis-5-trans-13-prostadienoic acid] | 0.1 to 0.5 | 0.05 to 0.1 | 19 | 20 | – | 10 | as effective as natural PGE2 | 2.5 | tissue selectivity, particularly 19-oxaprostaglandin E2 | –
COCCC[C@H](O)/C=C/[C@@H]1[C@@H](C/C=C\CCCC(=O)O)[C@@H](O)C[C@H]1O [19-oxa PGF2α, 9α,11α,15α-trihydroxy-19-oxa-cis-5-trans-13-prostadienoicacid] | 0.1 to 0.5 | 0.1 to 0.5 | – | – | – | – | – | – | – | –
CCOCCC[C@H](O)/C=C/[C@H]1[C@H](O)CC(=O)[C@@H]1C/C=C\CCCC(=O)O [19-oxa-ω-homo-PGE2, 9-oxo-11α,15α-dihydroxy-19-oxa-cis-5-trans-13-w-homo-prostadienoic acid] | 0.1 | 0.1 | 38 | 4 | – | – | – | 4 | – | more selective bronchodilator than natural PGE2
CCOCCC[C@H](O)/C=C/[C@@H]1[C@@H](C/C=C\CCCC(=O)O)[C@@H](O)C[C@H]1O [19-oxa-ω-homo-PGF2α, 9α,11α,15α-trihydroxy-19-oxa-cis-5-trans-13-ω-homoprostadienoic acid] | ≥ 0.1 | 0.06 to 0.3 | – | – | – | – | – | – | – | –
CCCCC[C@H](O)/C=C/[C@H]1[C@H](O)CC(=O)[C@@H]1C/C=C\CCCC(=O)O [PGE2, reference compound] | 0.01 to 0.03 | 0.01 to 0.03 | 75 | 1 | – | – | – | 0.4 | – | –
